From PubChem BioAssay (NCI)
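Where inhibition never reached the appropriate level, the endpoint shown equals the highest concentration tested. Otherwise, values were interpolated linearly from a five-concentration, 48-hour dose response in 96-well plates. GI50 marks 50% less growth. TGI is the concentration that stops growth completely.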

Assays:
Assay in all cases: NCI anticancer screen, dose series, 48 h
[1] = system: BT-549 breast
[2] = system: HS 578T breast
[3] = system: T-47D breast
[4] = system: PC-3 prostate
[5] = system: KM20L2 colon
[6] = system: LXFL 529 NSCLC
[7] = system: DMS 273 small cell lung
[8] = system: M19-MEL melanoma
[9] = system: DLD-1 colon

With `C#CC(=O)Nc1cccc2c1cc(C)n2-c1nc2c(c(NCc3ccccc3)n1)CCCC2` the GI50 [1] was 0.137 µM, the TGI [1] was 0.324 µM and the GI50 [2] was 0.353 µM. It also gave a TGI [2] of 3.07 µM, a GI50 [3] of 0.697 µM and a TGI [3] of 3.33 µM. It also gave a GI50 [4] of 0.186 µM and a TGI [4] of 0.351 µM.
With `O=C(O)c1ccc(C(O)(c2ccccc2)c2ccccc2)cc1` the TGI [1] was over 100 µM, the TGI [2] was over 100 µM and the TGI [3] was over 100 µM. It also gave a TGI [4] of over 100 µM.
For `CN(C)CCCSc1ccccc1NC1=C(Cl)C(=O)C(Nc2ccccc2SCCCN(C)C)=C(Cl)C1=O`, the GI50 [1] was 1.46 µM, the TGI [1] was 2.87 µM and the GI50 [2] was 3.14 µM. The TGI [2] was 21.4 µM, the GI50 [3] was 1.45 µM and the TGI [3] was 3.98 µM. The GI50 [4] was 1.68 µM and the TGI [4] was 3.84 µM.
With `Cc1cc(N2CCCCC2)nc(NC2CCCC(Nc3ccnc4cc(Cl)ccc34)C2)n1` (centres undefined) the GI50 [1] was 1.58 µM, the TGI [1] was 3.07 µM and the GI50 [2] was 1.55 µM. It also gave a TGI [2] of 3.95 µM, a GI50 [3] of 1.51 µM and a TGI [3] of 4.07 µM. For the same compound, the GI50 [4] was 1.29 µM and the TGI [4] was 2.86 µM.
For `COc1cc(-c2nc3sc(C)cn3c2/C=C2\C(=O)Nc3ccccc32)c(Br)c(OC)c1OC`, the GI50 [1] was 23.3 µM, the TGI [1] was 60.1 µM and the GI50 [2] was 31.5 µM. For the same compound, the TGI [2] was 74.6 µM, the GI50 [3] was 47.7 µM and the TGI [3] was over 100 µM. The GI50 [4] was 32.2 µM and the TGI [4] was over 100 µM.
Compound `Cc1ccc2cccc(OC(=O)Nc3cccc(C(F)(F)F)c3)c2n1` has a GI50 [1] of 10.7 µM, a TGI [1] of 26.8 µM and a GI50 [2] of 3.53 µM. The TGI [2] was 18.9 µM, the GI50 [3] was 3.05 µM and the TGI [3] was 13.4 µM. For the same compound, the GI50 [4] was 2.74 µM and the TGI [4] was 9.79 µM.
In the case of `Oc1ccc2c3c1OC1c4[nH]ncc4C[C@H]4[C@@H](C2)N(CC2CC2)CC[C@]314` (some centres undefined), the TGI [1] is reported as over 100 µM, the TGI [2] is reported as over 100 µM and the TGI [3] is reported as over 100 µM. The TGI [4] was over 100 µM.
Work on `CC(C)(C)CC(C)(C)c1ccc(O)c(Cc2ccc(Cl)cc2Cl)c1` yielded a GI50 [1] of 2.03 µM, a TGI [1] of 3.52 µM and a GI50 [2] of 1.71 µM. The TGI [2] was 3.72 µM, the GI50 [3] was 1.35 µM and the TGI [3] was 2.69 µM. It also gave a GI50 [4] of 1.54 µM and a TGI [4] of 2.88 µM.
Compound `COc1ccc(/C=C2\COc3ccc(O)c(O)c3C2=O)c(OC)c1OC` has a GI50 [1] of 4.03 µM, a TGI [1] of 12 µM and a GI50 [2] of 4.22 µM. It also gave a TGI [2] of over 100 µM, a GI50 [3] of 2.58 µM and a TGI [3] of 9.08 µM. It also gave a GI50 [4] of 2.35 µM and a TGI [4] of 61.8 µM.
With `COC(=O)c1cc2oc(/C=C3/SC(=S)N(N)C3=O)cc2n1Cc1ccccc1` the GI50 [1] was 3.5 µM, the TGI [1] was 26.7 µM and the GI50 [2] was 0.699 µM. For the same compound, the TGI [2] was 3.5 µM, the GI50 [3] was 3.33 µM and the TGI [3] was 10.1 µM. The GI50 [4] was 9.61 µM and the TGI [4] was over 31.9 µM.
`COc1ccc(C(=NN=C(N)N)c2ccc(OC)cc2)cc1` was tested, and the GI50 [1] was 3.94 µM, the TGI [1] was 15.6 µM and the GI50 [2] was 1.75 µM. The TGI [2] was 6.93 µM, the GI50 [3] was 3.21 µM and the TGI [3] was 15.1 µM. For the same compound, the GI50 [4] was 3.04 µM and the TGI [4] was 14.4 µM.
With `O=C(O)c1cc(=O)cc(C(=O)O)o1` the GI50 [1] was over 100 µM, the TGI [1] was over 100 µM and the GI50 [2] was over 100 µM. It also gave a TGI [2] of over 100 µM, a GI50 [3] of over 100 µM and a TGI [3] of over 100 µM. The GI50 [4] was over 100 µM and the TGI [4] was over 100 µM.
`OCC[N+]12CCCN1CCC2` gave a TGI [5] of over 100 µM, a TGI [6] of over 100 µM and a TGI [7] of over 100 µM. It also gave a TGI [8] of over 100 µM and a TGI [9] of over 100 µM.
`Cn1cc(C2=C(c3cn(-c4ccccc4)c4ccccc34)C(=O)NC2=O)c2ccccc21` gave a GI50 [1] of 16.2 µM, a TGI [1] of over 25 µM and a GI50 [2] of over 14.6 µM. The TGI [2] was over 25 µM, the GI50 [3] was 7.53 µM and the TGI [3] was over 25 µM. For the same compound, the GI50 [4] was 9.86 µM and the TGI [4] was over 25 µM.
In the case of `Cc1ccc(/C=C(\NC(=O)c2ccccc2)c2nc3ccccc3[nH]2)cc1`, the TGI [5] is reported as over 100 µM, the TGI [6] is reported as over 100 µM and the TGI [8] is reported as over 100 µM. The TGI [9] was over 100 µM.
Work on `COc1c(/C=C/C=O)cc2c(c1OC)OCO2` yielded a TGI [1] of over 100 µM, a TGI [2] of over 100 µM and a TGI [3] of over 100 µM. For the same compound, the TGI [4] was over 100 µM.
`COc1cc(CNCCN2C(=O)c3ccc4c5c(ccc(c35)C2=O)C(=O)N(CCNCc2cc(OC)c(OC)c(OC)c2)C4=O)cc(OC)c1OC` showed a GI50 [1] of 0.546 µM, a TGI [1] of 1.22 µM and a GI50 [3] of 0.189 µM. The TGI [3] was 0.718 µM.
Work on `N/N=C(\c1nc2ccc([N+](=O)[O-])cc2[nH]c1=O)C(O)c1ccc(Cl)c(Cl)c1` (centres undefined) yielded a TGI [1] of over 100 µM, a TGI [2] of over 100 µM and a TGI [3] of over 100 µM. The TGI [4] was over 100 µM.
`O=C1CC(c2ccccc2)Cc2nc3ccc(Br)cc3cc21` (centres undefined) gave a GI50 [1] of 0.589 µM, a TGI [1] of 15.9 µM and a GI50 [2] of 0.408 µM. The TGI [2] was over 94.5 µM, the GI50 [3] was 5.68 µM and the TGI [3] was over 100 µM. For the same compound, the GI50 [4] was 0.296 µM and the TGI [4] was over 100 µM.
In the case of `CC(C)[C@@](O)(c1ccc2cc(OC(F)F)c(OC(F)F)cc2c1)c1cn[nH]n1`, the GI50 [1] is reported as 15.2 µM, the TGI [1] is reported as 29.5 µM and the GI50 [2] is reported as 21.1 µM. It also gave a TGI [2] of 73.7 µM, a GI50 [3] of 13.4 µM and a TGI [3] of 53.1 µM. It also gave a GI50 [4] of 14.9 µM and a TGI [4] of 36 µM.
With `O=Nc1c(-c2c(O)[nH]c3cc(Br)ccc23)[nH]c2ccccc12` the GI50 [1] was 0.716 µM, the TGI [1] was 2.79 µM and the GI50 [2] was 0.239 µM. The TGI [2] was 7.14 µM, the GI50 [3] was 1.98 µM and the TGI [3] was 5.48 µM. The GI50 [4] was 1.2 µM.
With `CCCCNS(=O)(=O)c1n[nH]c(=O)[nH]c1=O` the TGI [1] was over 100 µM, the TGI [2] was over 100 µM and the TGI [3] was over 100 µM. For the same compound, the TGI [4] was over 100 µM.
Compound `O=c1cnnc(N/N=C/c2ccccc2O)[nH]1` has a GI50 [1] of 6.36 µM, a TGI [1] of over 100 µM and a GI50 [2] of 28.2 µM. It also gave a TGI [2] of over 100 µM, a GI50 [3] of 0.0656 µM and a TGI [3] of over 100 µM. For the same compound, the GI50 [4] was 2.99 µM and the TGI [4] was over 100 µM.
`O=C(C=P(c1ccccc1)(c1ccccc1)c1ccccc1)CCl` gave a GI50 [1] of 1.89 µM, a TGI [1] of 7.14 µM and a GI50 [2] of 1.53 µM. For the same compound, the TGI [2] was 11 µM, the GI50 [3] was 1.04 µM and the TGI [3] was 2.99 µM. It also gave a GI50 [4] of 1.54 µM and a TGI [4] of 3.34 µM.
`O=c1c2ccccc2c(/C=N\NC2=NCCN2)c2oc3ccccc3n12` gave a GI50 [1] of 31.3 µM, a TGI [1] of over 100 µM and a GI50 [3] of 17.6 µM. It also gave a TGI [3] of 36 µM, a GI50 [4] of 23 µM and a TGI [4] of 45.6 µM.
`COC(=O)[C@]12CC[C@@H](C)[C@H](C)[C@@H]1C1=CC[C@@H]3[C@@]4(C)C[C@@H](OC(=O)/C=C/c5ccccc5)[C@H](O)[C@@](C)(CO)[C@@H]4[C@H](O)C[C@@]3(C)[C@]1(C)CC2` gave a GI50 [1] of 1.76 µM, a TGI [1] of 3.97 µM and a GI50 [2] of 1.88 µM. It also gave a TGI [2] of 4.71 µM, a GI50 [3] of 2.34 µM and a TGI [3] of 10.9 µM. The GI50 [4] was 2.55 µM and the TGI [4] was 8.93 µM.
